Measurements reported in US10940139B2, “Compounds that interact with the Ras superfamily for the treatment of cancers, inflammatory diseases, rasopathies, and fibrotic disease” (Shy Therapeutics LLC, priority 2017, dated 2021).

Test system: MIA-PACA2 pancreatic cancer cell lines
Test: Cell proliferation assay (CellTiter 96 AQueous One)
Format: cell-based
Details: Homo sapiens, MIA PaCa-2; for inhibition at 30 µM: MIA-PACA2; for IC50: MIA-PACA2, same assay as the % inhibition (standard conditions)

For `CCCCSc1nc(-c2cccs2)c(C(=O)C(F)(F)F)cc1C#N` [drawing 1523], the inhibition at 30 µM was 76 to 100%.

`CCC(C)(C)c1ccc(OCCCC(=O)NC(C(=O)OC)C(C)C)c(C(C)(C)CC)c1` (stereo not drawn) [drawing 1524] was tested, and the inhibition at 30 µM was 76 to 100%.

`Oc1ccc(C2(c3cccc(Cl)c3)CCCC2)cc1` [drawing 1525] gave an inhibition at 30 µM of 76 to 100%.

In the case of `Cc1ccc(-c2ccc(Oc3ccc(C(F)(F)F)cn3)c(C)c2)cc1` [drawing 1526], the inhibition at 30 µM is reported as 76 to 100%.

`CCOc1cc(C(=O)Oc2c(C)ccc(C)c2C)cc(OCC)c1OCC` [drawing 1527] gave an inhibition at 30 µM of 76 to 100%.

With `COC(=O)c1ccc(C(=O)NCC2(c3ccccc3OC)CCCC2)nc1` [drawing 1528] the inhibition at 30 µM was 76 to 100%.

`CCOc1cc(S(=O)(=O)N(Cc2ccccc2)Cc2ccccc2)c(OCC)cc1C` [drawing 1529] showed an inhibition at 30 µM of 76 to 100%.

Compound `COc1ccc(CN(CC[S+]([O-])c2cc(Cl)ccc2Cl)C2CC2)cc1` (stereo not drawn) [drawing 1530] has an inhibition at 30 µM of 51 to 75%.

`CCCOc1ccc2ccccc2c1CN(C)S(=O)(=O)N1CC(C)OC(C)C1` (stereo not drawn) [drawing 1531] showed an inhibition at 30 µM of 76 to 100%.

With `O=S(=O)(Oc1cc(C(F)(F)F)cc(C(F)(F)F)c1)N1CCc2ccccc2C1` [drawing 1532] the inhibition at 30 µM was 25 to 50%.

Compound `COC(=O)C(C)CN(Cc1cc(Br)ccc1[N+](=O)[O-])C1CC1` (stereo not drawn) [drawing 1534] has an inhibition at 30 µM of 1 to 25%.

`CC(C1CC1)N(CC(F)(F)F)C(=O)Cc1ccc(-c2ccccc2)cc1` (stereo not drawn) [drawing 1535] gave an inhibition at 30 µM of 76 to 100%.

`COC(=O)C(C)CN(Cc1ccccc1)c1nc(C(F)(F)F)ccc1C#N` (stereo not drawn) [drawing 1536] showed an inhibition at 30 µM of 51 to 75%.

`N#CC1(c2ccc(C(=O)N3CCCC3CO)cc2)CC1` (stereo not drawn) [drawing 1537] was tested, and the inhibition at 30 µM was 51 to 75%.

With `CCN(CC)S(=O)(=O)c1ccc(NCCOC)c(C(=O)NCCSCc2ccc(C)cc2)c1` [drawing 1538] the inhibition at 30 µM was 76 to 100%.

Compound `CSc1nc(C2CC2)cc(C(=O)NCCc2ccc(S(=O)(=O)NC(=O)c3cc(C4CC4)nc(SC)c3C#N)cc2)c1C#N` [drawing 1539] has an inhibition at 30 µM of 1 to 25%.

In the case of `CC(C)C1=C(O)C2(CC2c2ccc(-c3ccccc3)cc2)C(C)CC1` (stereo not drawn) [drawing 1540], the inhibition at 30 µM is reported as 76 to 100%.

For `Cc1cccc(C)c1OCCOC(=O)c1ccccc1SCCOc1c(C)cccc1C` [drawing 1541], the inhibition at 30 µM was 51 to 75%.

`Oc1nc(-c2ccccn2)nc2c1CCCN2` [drawing 1542] was tested, and the inhibition at 30 µM was 1 to 25%.

With `O=C(COc1ccccc1)N1CCCc2c(O)nc(-c3ccccn3)nc21` [drawing 1543] the inhibition at 30 µM was 76 to 100%.

`COc1ccc(COCC(=O)N2CCCc3c(O)nc(-c4ccccn4)nc32)cc1` [drawing 1544] was tested, and the inhibition at 30 µM was 76 to 100%.

`COc1ccc(CCC(=O)N2CCCc3c(O)nc(-c4ccccn4)nc32)cc1` [drawing 1545] was tested, and the inhibition at 30 µM was 76 to 100%.

In the case of `O=C(c1ccn(-c2ccccc2)n1)N1CCCc2c(O)nc(-c3ccccn3)nc21` [drawing 1546], the inhibition at 30 µM is reported as 76 to 100%.

`CS(=O)(=O)N1CCCc2cc(C(=O)N3CCCc4c(O)nc(-c5ccccn5)nc43)ccc21` [drawing 1547] was tested, and the inhibition at 30 µM was 76 to 100%.

Work on `O=C(c1ccc(=O)[nH]n1)N1CCCc2c(O)nc(-c3ccccn3)nc21` [drawing 1548] yielded an inhibition at 30 µM of 76 to 100%.

For `CS(=O)(=O)c1cccc(C(=O)N2CCCc3c(O)nc(-c4ccccn4)nc32)c1` [drawing 1549], the inhibition at 30 µM was 1 to 25%.

`COCCCC(=O)N1CCCc2c(O)nc(-c3ccccn3)nc21` [drawing 1550] was tested, and the inhibition at 30 µM was 76 to 100%.

Work on `O=C(c1cocn1)N1CCCc2c(O)nc(-c3ccccn3)nc21` [drawing 1551] yielded an inhibition at 30 µM of 1 to 25%.

`O=S(=O)(CCc1ccccc1)N1CCCc2c(O)nc(-c3ccccn3)nc21` [drawing 1552] gave an inhibition at 30 µM of 1 to 25%.

For `O=S(=O)(c1ccccc1)N1CCCc2c(O)nc(-c3ccccn3)nc21` [drawing 1553], the inhibition at 30 µM was 25 to 50%.

Compound `O=C(OCCc1ccccc1)N1CCCc2c(O)nc(-c3ccccn3)nc21` [drawing 1554] has an inhibition at 30 µM of 76 to 100%.

`O=C(CC(c1ccccc1)c1ccccc1)N1CCCc2c(O)nc(-c3ccccn3)nc21` [drawing 1555] showed an inhibition at 30 µM of 76 to 100%.

`O=C(CCCc1cccnc1)N1CCCc2c(O)nc(-c3ccccn3)nc21` [drawing 1556] showed an inhibition at 30 µM of 76 to 100%.

`Nc1nc(O)c2scc(Br)c2n1` [drawing 1557] gave an inhibition at 30 µM of 1 to 25%.

In the case of `CC1CCN(C(=O)c2csc3c(O)nc(N)nc23)CC1` [drawing 1558], the inhibition at 30 µM is reported as 1 to 25%.

For `Nc1nc(O)c2scc(C(=O)N3CCC(N4CCCC4=O)CC3)c2n1` [drawing 1559], the inhibition at 30 µM was 25 to 50%.

`Nc1nc(O)c2scc(C(=O)NCCc3cccnc3)c2n1` [drawing 1560] was tested, and the inhibition at 30 µM was 1 to 25%.

`Nc1nc(O)c2scc(C(=O)N3CCc4ccccc4CC3)c2n1` [drawing 1561] was tested, and the inhibition at 30 µM was 1 to 25%.

With `Oc1nc(-c2ccccn2)nc2c(Br)csc12` [drawing 1562] the IC50 was 501 to 1000 nM and the inhibition at 30 µM was 76 to 100%.

In the case of `CC1CCN(C(=O)c2csc3c(O)nc(-c4ccccn4)nc23)CC1` [drawing 1563], the inhibition at 30 µM is reported as 76 to 100%.

`COCC1CCN(C(=O)c2csc3c(O)nc(-c4ccccn4)nc23)CC1` [drawing 1564] showed an inhibition at 30 µM of 76 to 100%.

`CCOCCC1CCN(C(=O)c2csc3c(O)nc(-c4ccccn4)nc23)CC1` [drawing 1565] showed an inhibition at 30 µM of 76 to 100%.

For `COCCCC1CCN(C(=O)c2csc3c(O)nc(-c4ccccn4)nc23)CC1` [drawing 1566], the inhibition at 30 µM was 76 to 100%.

In the case of `O=C(c1csc2c(O)nc(-c3ccccn3)nc12)N1CCC(N2CCOCC2)CC1` [drawing 1567], the inhibition at 30 µM is reported as 1 to 25%.

Compound `O=C(c1csc2c(O)nc(-c3ccccn3)nc12)N1CCC(N2CCCC2=O)CC1` [drawing 1568] has an inhibition at 30 µM of 1 to 25%.

`O=C(c1csc2c(O)nc(-c3ccccn3)nc12)N1CCN(c2ccccc2)CC1` [drawing 1569] was tested, and the IC50 was 100 to 500 nM and the inhibition at 30 µM was 76 to 100%.

In the case of `O=C(c1csc2c(O)nc(-c3ccccn3)nc12)N1CCN(c2ccncc2)CC1` [drawing 1570], the inhibition at 30 µM is reported as 76 to 100%.

In the case of `O=C(c1csc2c(O)nc(-c3ccccn3)nc12)N1CCC(c2cccnc2)CC1` [drawing 1571], the inhibition at 30 µM is reported as 76 to 100%.

In the case of `CC1(O)CCN(C(=O)c2csc3c(O)nc(-c4ccccn4)nc23)CC1` [drawing 1572], the inhibition at 30 µM is reported as 76 to 100%.

For `CC1(N)CCN(C(=O)c2csc3c(O)nc(-c4ccccn4)nc23)CC1` [drawing 1573], the inhibition at 30 µM was 1 to 25%.

`CCOC(=O)NC1CCN(C(=O)c2csc3c(O)nc(-c4ccccn4)nc23)CC1` [drawing 1574] gave an inhibition at 30 µM of 51 to 75%.

`COCCOCCN(C)C(=O)c1csc2c(O)nc(-c3ccccn3)nc12` [drawing 1575] was tested, and the inhibition at 30 µM was 25 to 50%.

For `O=C(c1csc2c(O)nc(-c3ccccn3)nc12)N(CCO)CCOCCO` [drawing 1576], the inhibition at 30 µM was 1 to 25%.

Compound `CN(CCc1ccncc1)C(=O)c1csc2c(O)nc(-c3ccccn3)nc12` [drawing 1577] has an inhibition at 30 µM of 25 to 50%.

`O=C(NCCc1cccnc1)c1csc2c(O)nc(-c3ccccn3)nc12` [drawing 1578] gave an inhibition at 30 µM of 76 to 100%.

`O=C(c1csc2c(O)nc(-c3ccccn3)nc12)N1CCc2ccccc2CC1` [drawing 1579] gave an inhibition at 30 µM of 76 to 100%.

With `Nc1nc(O)c2scc(-c3ccccc3)c2n1` [drawing 1580] the inhibition at 30 µM was 25 to 50%.

Work on `Oc1nc(-c2ccccn2)nc2c(-c3ccccc3)csc12` [drawing 1581] yielded an IC50 of 100 to 500 nM and an inhibition at 30 µM of 76 to 100%.

`Oc1nc(-c2ccccn2)nc2c(-c3ccccc3Cl)csc12` [drawing 1582] was tested, and the IC50 was 100 to 500 nM and the inhibition at 30 µM was 76 to 100%.

In the case of `Oc1nc(-c2ccccn2)nc2c1ncn2-c1ccccc1` [drawing 1583], the inhibition at 30 µM is reported as 25 to 50%.

In the case of `Oc1nc(-c2ccccn2)nc2c1ncn2-c1ccccn1` [drawing 1584], the inhibition at 30 µM is reported as 76 to 100%.

`COc1ccc(COCC(=O)Nc2ccnc(-c3ccccn3)n2)cn1` [drawing 1585] gave an inhibition at 30 µM of 1 to 25%.

`N#Cc1ccc(CC(=O)Nc2ccnc(-c3ccccn3)n2)cc1` [drawing 1586] gave an inhibition at 30 µM of 76 to 100%.

`Brc1csc2nc(-c3ccccn3)nc(N3CCOCC3)c12` [drawing 1587] was tested, and the inhibition at 30 µM was 25 to 50%.

`c1ccc(-c2nc(N3CCOCC3)c3ccsc3n2)nc1` [drawing 1588] showed an inhibition at 30 µM of 51 to 75%.

`Oc1nc(-c2ccccn2)nc2scc(Br)c12` [drawing 1589] showed an IC50 of 100 to 500 nM and an inhibition at 30 µM of 76 to 100%.

In the case of `Oc1nc(-c2ccccn2)nc2sccc12` [drawing 1590], the inhibition at 30 µM is reported as 76 to 100%.

`c1ccc(-c2nc(NCC3CCCO3)c3ccsc3n2)nc1` (stereo not drawn) [drawing 1591] showed an inhibition at 30 µM of 76 to 100%.

For `CCN(CC)CCC(C)Nc1nc(-c2ccccn2)nc2sccc12` (stereo not drawn) [drawing 1592], the inhibition at 30 µM was 76 to 100%.

`O=C1CN(c2nc(-c3ccccn3)nc3scc(-c4ccccc4)c23)CCN1` [drawing 1593] showed an inhibition at 30 µM of 1 to 25%.

Compound `O=C1CN(c2nc(-c3ccccn3)nc3scc(-c4ccccc4)c23)CCN1CCO` [drawing 1594] has an inhibition at 30 µM of 51 to 75%.

With `N#Cc1ncn(-c2nc(-c3ccccn3)nc3sc(-c4ccccc4)cc23)n1` [drawing 1595] the IC50 was 501 to 1000 nM and the inhibition at 30 µM was 76 to 100%.

`Cc1nnc(C(Nc2nc(-c3ccccn3)nc3scc(-c4ccccc4)c23)c2ccccc2)n1C` (stereo not drawn) [drawing 1596] showed an inhibition at 30 µM of 76 to 100%.

With `Cc1sc2nc(-c3ccccn3)nc(NCCc3nccn3C)c2c1-c1ccccc1` [drawing 1597] the inhibition at 30 µM was 76 to 100%.

`CCCNC(=O)CN1CCN(c2nc(-c3ccccn3)nc3sc(-c4ccccc4)cc23)CC1` [drawing 1598] showed an inhibition at 30 µM of 76 to 100%.

`CC(Nc1nc(-c2ccccn2)nc2scc(-c3ccccc3)c12)c1nncn1C` (stereo not drawn) [drawing 1601] was tested, and the inhibition at 30 µM was 76 to 100%.

`c1ccc(-c2csc3nc(-c4ccccn4)nc(N4CCN(Cc5cccnc5)CC4)c23)cc1` [drawing 1602] showed an inhibition at 30 µM of 76 to 100%.

Compound `c1ccc(-c2csc3nc(-c4ccccn4)nc(N4CCN(CC5CCCO5)CC4)c23)cc1` (stereo not drawn) [drawing 1603] has an inhibition at 30 µM of 76 to 100%.

For `CN(Cc1cnn(C)c1)c1nc(-c2ccccn2)nc2scc(-c3ccccc3)c12` [drawing 1604], the inhibition at 30 µM was 76 to 100%.

For `O=C(CN1CCN(c2nc(-c3ccccn3)nc3sc(-c4ccccc4)cc23)CC1)N1CCCC1` [drawing 1606], the IC50 was > 1000 nM and the inhibition at 30 µM was 76 to 100%.

In the case of `CNC(=O)CN1CCN(c2nc(-c3ccccn3)nc3scc(-c4ccccc4)c23)CC1` [drawing 1607], the inhibition at 30 µM is reported as 1 to 25%.

Compound `O=S1(=O)CCC(N2CCN(c3nc(-c4ccccn4)nc4scc(-c5ccccc5)c34)CC2)C1` (stereo not drawn) [drawing 1608] has an inhibition at 30 µM of 76 to 100%.

Compound `CN(CC(=O)N1CCOCC1)c1nc(-c2ccccn2)nc2scc(-c3ccccc3)c12` [drawing 1609] has an inhibition at 30 µM of 51 to 75%.
